PubChem BioAssay AID330 (DTP/NCI, 2004)
Values joined by “and” are separate entries in the source; they are usually repeats but may differ in a detail not shown here. Equal entries are not always repeated. Inconclusive results and toxic doses are left out.

System: P388 leukemia ip, CD2F1 mice, survival T/C
Test: NCI In Vivo Anticancer Drug Screen. Data for tumor model P388 Leukemia (intraperitoneal) in CD2F1 (CDF1) mice
Details: endpoint: median survival time, higher = longer survival
Protocol: The antitumor activity of compounds was measured in mice bearing transplantable tumors. Survival or tumor size were measured and the results are expressed as the measurement made in the treated group (T) divided by the measurement made in the vehicle treated control group (C). The tumor model used in this assay is P388 Leukemia (intraperitoneal) in CD2F1 (CDF1) mice

[1] = dose: 60.0 mg/kg/injection, schedule: Q01DX005 (ip), vehicle: saline with Tween-80
[2] = dose: 120.0 mg/kg/injection, schedule: Q01DX005 (ip), vehicle: saline with Tween-80
[3] = dose: 240.0 mg/kg/injection, schedule: Q01DX005 (ip), vehicle: saline with Tween-80
[4] = dose: 50.0 mg/kg/injection, schedule: Q01DX005 (ip), vehicle: Klucel (hydroxypropylcellulose) (HPC)
[5] = dose: 100.0 mg/kg/injection, schedule: Q01DX005 (ip), vehicle: Klucel (hydroxypropylcellulose) (HPC)
[6] = dose: 200.0 mg/kg/injection, schedule: Q01DX005 (ip), vehicle: Klucel (hydroxypropylcellulose) (HPC)
[7] = dose: 50.0 mg/kg/injection, schedule: Q01DX009 (ip), vehicle: saline with Tween-80
[8] = dose: 100.0 mg/kg/injection, schedule: Q01DX009 (ip), vehicle: saline with Tween-80
[9] = dose: 50.0 mg/kg/injection, schedule: Q01DX005 (ip), vehicle: saline with Tween-80
[10] = dose: 100.0 mg/kg/injection, schedule: Q01DX005 (ip), vehicle: saline with Tween-80
[11] = dose: 200.0 mg/kg/injection, schedule: Q01DX005 (ip), vehicle: saline with Tween-80
[12] = dose: 12.5 mg/kg/injection, schedule: Q01DX009 (ip), vehicle: saline with Tween-80
[13] = dose: 25.0 mg/kg/injection, schedule: Q01DX009 (ip), vehicle: saline with Tween-80
[14] = dose: 100.0 mg/kg/injection, schedule: Q01DX001 (ip), vehicle: Klucel (hydroxypropylcellulose) (HPC)
[15] = dose: 200.0 mg/kg/injection, schedule: Q01DX001 (ip), vehicle: Klucel (hydroxypropylcellulose) (HPC)
[16] = dose: 400.0 mg/kg/injection, schedule: Q01DX001 (ip), vehicle: Klucel (hydroxypropylcellulose) (HPC)
[17] = dose: 100.0 mg/kg/injection, schedule: Q04DX003 (ip), vehicle: Klucel (hydroxypropylcellulose) (HPC)

With O=c1c(Br)c(Cl)nc2ccccn12 the T/C (dose: 100.0 mg/kg/injection, schedule: Q01DX001 (ip), vehicle: saline with Tween-80) was 90 % of control, the T/C (dose: 200.0 mg/kg/injection, schedule: Q01DX001 (ip), vehicle: saline with Tween-80) was 100 % of control and the T/C (dose: 400.0 mg/kg/injection, schedule: Q01DX001 (ip), vehicle: saline with Tween-80) was 95 % of control.

In the case of NS(=O)(=O)c1ccc(NC(=O)C2C(=O)N(c3ccc(S(N)(=O)=O)cc3)C(=O)/C2=N/O)cc1 (stereo not drawn), the T/C [1] is reported as 111 % of control, the T/C [2] is reported as 110 % of control and the T/C [3] is reported as 101 % of control.

C[C@]12CC[C@H]3[C@@H](CC=C4C[C@@H](O)CC[C@@]43C)[C@@H]1CC[C@@H]2N(CCO)CCO was tested, and the T/C [4] was 96 % of control, the T/C [5] was 100 % of control and the T/C [6] was 97 % of control.

Cn1c(Cl)cc2nc3ccccc3n2c1=O was tested, and the T/C [1] was 96 % of control, the T/C [2] was 94 % of control and the T/C [3] was 100 % of control.

COc1ccc(-c2cc(=O)c3c(O)cc(O)c(-c4cc(-c5cc(=O)c6c(O)cc(OC)cc6o5)ccc4OC)c3o2)cc1 was tested, and the T/C [4] was 105 % of control, the T/C [5] was 99 % of control and the T/C [6] was 88 % of control.

With O=C1C(Cl)=C(Sc2nnc3c4ccccc4c4ccccc4c3n2)C(=O)c2ccccc21 the T/C [7] was 100 % of control, the T/C [8] was 91 % of control and the T/C (dose: 200.0 mg/kg/injection, schedule: Q01DX009 (ip), vehicle: saline with Tween-80) was 99 % of control.

For COc1cc([Se]c2ccccc2)ccc1N(C)C, the T/C (dose: 30.0 mg/kg/injection, schedule: Q01DX005 (ip), vehicle: Klucel (hydroxypropylcellulose) (HPC)) was 101 % of control, the T/C (dose: 60.0 mg/kg/injection, schedule: Q01DX005 (ip), vehicle: Klucel (hydroxypropylcellulose) (HPC)) was 107 % of control and the T/C (dose: 120.0 mg/kg/injection, schedule: Q01DX005 (ip), vehicle: Klucel (hydroxypropylcellulose) (HPC)) was 100 % of control. The T/C (dose: 240.0 mg/kg/injection, schedule: Q01DX005 (ip), vehicle: Klucel (hydroxypropylcellulose) (HPC)) was 113 % of control.

Cn1c2c(F)cccc2c(=O)c2c(O)cc3c(c21)C=CC(C)(C)O3 was tested, and the T/C [4] was 96 % of control, the T/C [5] was 91 % of control and the T/C [6] was 94 % of control.

For Cc1ccc(-n2c(-c3ccc(-n4c(C)nc5ccc(Br)cc5c4=O)cc3)n[nH]c2=S)cc1, the T/C (dose: 100.0 mg/kg/injection, schedule: Q04DX002 (ip), vehicle: Klucel (hydroxypropylcellulose) (HPC)) was 98 % of control, the T/C (dose: 200.0 mg/kg/injection, schedule: Q04DX002 (ip), vehicle: Klucel (hydroxypropylcellulose) (HPC)) was 106 % of control and the T/C (dose: 400.0 mg/kg/injection, schedule: Q04DX002 (ip), vehicle: Klucel (hydroxypropylcellulose) (HPC)) was 100 % of control.

In the case of Cc1nn(N)c2[nH]c(Cl)cc(=O)c12, the T/C [9] is reported as 97 % of control, the T/C [10] is reported as 109 % of control and the T/C [11] is reported as 116 % of control.

With COc1ccc(NC(=S)NN)cc1 the T/C (dose: 37.5 mg/kg/injection, schedule: Q01DX009 (ip), vehicle: saline with Tween-80) was 95 % of control, the T/C (dose: 75.0 mg/kg/injection, schedule: Q01DX009 (ip), vehicle: saline with Tween-80) was 90 % of control and the T/C (dose: 100.0 mg/kg/injection, schedule: Q04DX003 (ip), vehicle: saline with Tween-80) was 87 % of control.

For NNCCO, the T/C (dose: 3.12 mg/kg/injection, schedule: Q01DX009 (ip), vehicle: saline with Tween-80) was 108 % of control, the T/C (dose: 6.25 mg/kg/injection, schedule: Q01DX009 (ip), vehicle: saline with Tween-80) was 99 % of control and 100 % of control and the T/C [12] was 99 % of control and 103 % of control. For the same compound, the T/C [13] was 100 % of control and 104 % of control and the T/C [7] was 100 % of control.

For CCN(CC)C(=O)c1ccccc1-c1ccccc1C(=O)N(CC)CC, the T/C (dose: 100.0 mg/kg/injection, schedule: Q04DX003 (ip), vehicle: saline) was 101 % of control, the T/C (dose: 200.0 mg/kg/injection, schedule: Q04DX003 (ip), vehicle: saline) was 98 % of control and the T/C (dose: 400.0 mg/kg/injection, schedule: Q04DX003 (ip), vehicle: saline) was 95 % of control.

For C=C1C(=O)C23CC1CCC2C12COC(OC(=O)CCCCCCCCCCC)C1C(C)(C)C(O)CC2OC3=O (stereo not drawn), the T/C (dose: 7.5 mg/kg/injection, schedule: Q01DX009 (ip), vehicle: saline with Tween-80) was 103 % of control, the T/C (dose: 15.0 mg/kg/injection, schedule: Q01DX009 (ip), vehicle: saline with Tween-80) was 95 % of control and the T/C (dose: 30.0 mg/kg/injection, schedule: Q01DX009 (ip), vehicle: saline with Tween-80) was 103 % of control. The T/C (dose: 60.0 mg/kg/injection, schedule: Q01DX009 (ip), vehicle: saline with Tween-80) was 103 % of control.

In the case of CC(C)(C)OC(=O)NCCCC(NC(=O)OCc1ccccc1)C(=O)O (stereo not drawn), the T/C [9] is reported as 103 % of control, the T/C [10] is reported as 99 % of control and the T/C [11] is reported as 95 % of control.

With O=C(NCCCCC(NC(=O)c1ccccc1)C(=O)O)OCc1ccccc1 (stereo not drawn) the T/C [9] was 96 % of control, the T/C [10] was 100 % of control and the T/C [11] was 92 % of control.

In the case of CN1C(=O)C2CCC1n1c(=O)n(-c3ccccc3)c(=O)n12 (stereo not drawn), the T/C [14] is reported as 97 % of control, the T/C [15] is reported as 99 % of control and the T/C [16] is reported as 94 % of control.

With O=C(Oc1cc(Cl)ccc1Cl)c1ccccc1 the T/C [12] was 109 % of control and 96 % of control, the T/C [13] was 100 % of control and 98 % of control and the T/C [7] was 100 % of control and 102 % of control. For the same compound, the T/C [8] was 102 % of control and 91 % of control.

In the case of [N-]=[N+]=Nc1ccc(C(=O)ON2C(=O)CCC2=O)cc1, the T/C [9] is reported as 97 % of control, the T/C [10] is reported as 105 % of control and the T/C [11] is reported as 119 % of control.

COc1cccc2c1C(=O)c1c(O)c3c(c(O)c1C2=O)C[C@@](O)(C(C)O)C[C@@H]3OC1CC(N2CCOCC2C#N)C(O)C(C)O1 (stereo partly drawn) was tested, and the T/C (dose: 0.03 mg/kg/injection, schedule: Q04DX003 (ip), vehicle: water) was 120 % of control, the T/C (dose: 0.1 mg/kg/injection, schedule: Q04DX003 (ip), vehicle: water) was 166 % of control and the T/C (dose: 12.5 micrograms/kg/injection, schedule: Q04DX003 (ip), vehicle: water) was 107 % of control. The T/C (dose: 25.0 micrograms/kg/injection, schedule: Q04DX003 (ip), vehicle: water) was 101 % of control, the T/C (dose: 50.0 micrograms/kg/injection, schedule: Q04DX003 (ip), vehicle: water) was 106 % of control and the T/C (dose: 100.0 micrograms/kg/injection, schedule: Q04DX003 (ip), vehicle: water) was 120 % of control.

For Oc1c(Cl)cc(C(c2cc(Cl)c(O)c(Cl)c2)C(c2cc(Cl)c(O)c(Cl)c2)c2cc(Cl)c(O)c(Cl)c2)cc1Cl, the T/C [17] was 115 % of control.

In the case of COc1ccc2sc3c(C)ccc(NCC4CCCN5CCCCC45)c3c(=O)c2c1 (stereo not drawn), the T/C [9] is reported as 95 % of control, the T/C [10] is reported as 90 % of control and the T/C [11] is reported as 90 % of control.

CCc1cccc(NC(=O)Sc2ccc(O)cc2)c1 was tested, and the T/C [7] was 108 % of control and the T/C [8] was 106 % of control.

In the case of [O-][n+]1c2c(cc3ccccc31)Cc1ccccc1-2, the T/C [4] is reported as 109 % of control, the T/C [5] is reported as 101 % of control and the T/C [6] is reported as 106 % of control.

For CN(C)c1ccc(NC2=C(Cl)C(=O)C(Nc3ccc(N(C)C)cc3)=C(Cl)C2=O)cc1, the T/C (dose: 25.0 mg/kg/injection, schedule: Q01DX005 (ip), vehicle: saline with Tween-80) was 101 % of control, the T/C [9] was 92 % of control and the T/C [10] was 88 % of control.

With N#Cc1c(-c2ccccc2)ssc1=S the T/C [1] was 104 % of control, the T/C [2] was 103 % of control and the T/C [3] was 106 % of control.

C=COC(=O)CCCCCCCC was tested, and the T/C [17] was 103 % of control, the T/C (dose: 200.0 mg/kg/injection, schedule: Q04DX003 (ip), vehicle: Klucel (hydroxypropylcellulose) (HPC)) was 105 % of control and the T/C (dose: 400.0 mg/kg/injection, schedule: Q04DX003 (ip), vehicle: Klucel (hydroxypropylcellulose) (HPC)) was 95 % of control.

NC(=O)NNc1cccc(Cl)n1 was tested, and the T/C [14] was 96 % of control, the T/C [15] was 101 % of control and the T/C [16] was 97 % of control.

With COc1ccccc1C1OCC(C)(C)N1C (stereo not drawn) the T/C (dose: 18.75 mg/kg/injection, schedule: Q01DX001 (ip), vehicle: saline sonified) was 100 % of control, the T/C (dose: 37.5 mg/kg/injection, schedule: Q01DX001 (ip), vehicle: saline sonified) was 95 % of control and the T/C (dose: 75.0 mg/kg/injection, schedule: Q01DX001 (ip), vehicle: saline sonified) was 110 % of control. For the same compound, the T/C (dose: 75.0 mg/kg/injection, schedule: Q04DX003 (ip), vehicle: saline with Tween-80) was 105 % of control, the T/C (dose: 150.0 mg/kg/injection, schedule: Q04DX003 (ip), vehicle: saline with Tween-80) was 105 % of control and the T/C (dose: 300.0 mg/kg/injection, schedule: Q04DX003 (ip), vehicle: saline with Tween-80) was 100 % of control.

With CCC(O)C1(C#Cc2ccccc2)Sc2ccccc2N1C (stereo not drawn) the T/C [1] was 107 % of control, the T/C [2] was 110 % of control and the T/C [3] was 110 % of control.
